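Exposure lasted 48 hours, with cells grown in 96-well plates and compounds tested at five concentrations. TGI denotes the concentration required for complete inhibition of growth.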
Legend:
Assay in all cases: NCI-60 cell line screen, 48 h
PC-3 prostate = system: PC-3 prostate
SK-MEL-2 melanoma = system: SK-MEL-2 melanoma
KM12 colon = system: KM12 colon
HL-60(TB) leukemia = system: HL-60(TB) leukemia
CCRF-CEM leukemia = system: CCRF-CEM leukemia
HCT-15 colon = system: HCT-15 colon
SF-539 CNS = system: SF-539 CNS
OVCAR-8 ovarian = system: OVCAR-8 ovarian
HOP-92 NSCLC = system: HOP-92 NSCLC
HS 578T breast = system: HS 578T breast
NCI-H522 lung = system: NCI-H522 lung
K-562 leukemia = system: K-562 leukemia
LOX IMVI melanoma = system: LOX IMVI melanoma
UACC-62 melanoma = system: UACC-62 melanoma
SK-OV-3 ovarian = system: SK-OV-3 ovarian
IGROV1 ovarian = system: IGROV1 ovarian
MALME-3M melanoma = system: MALME-3M melanoma
UO-31 renal = system: UO-31 renal
SNB-75 CNS = system: SNB-75 CNS
SF-295 CNS = system: SF-295 CNS
BT-549 breast = system: BT-549 breast
DU-145 prostate = system: DU-145 prostate
SW-620 colon = system: SW-620 colon
SN12C renal = system: SN12C renal
SNB-19 CNS = system: SNB-19 CNS
HCC-2998 colon = system: HCC-2998 colon
SF-268 CNS = system: SF-268 CNS
A498 renal = system: A498 renal
ACHN renal = system: ACHN renal
786-0 renal = system: 786-0 renal
U251 CNS = system: U251 CNS
MCF7 breast = system: MCF7 breast
OVCAR-5 ovarian = system: OVCAR-5 ovarian
OVCAR-4 ovarian = system: OVCAR-4 ovarian
MDA-MB-435 = system: MDA-MB-435
EKVX NSCLC = system: EKVX NSCLC
CAKI-1 renal = system: CAKI-1 renal
MDA-MB-231 breast = system: MDA-MB-231 breast
NCI-H226 lung = system: NCI-H226 lung
NCI-H23 lung = system: NCI-H23 lung
HCT-116 colon = system: HCT-116 colon
MDA-N = system: MDA-N
SK-MEL-28 melanoma = system: SK-MEL-28 melanoma
HOP-62 NSCLC = system: HOP-62 NSCLC
NCI-H460 lung = system: NCI-H460 lung
UACC-257 melanoma = system: UACC-257 melanoma
A549 NSCLC = system: A549 NSCLC
COLO 205 colon = system: COLO 205 colon
M14 melanoma = system: M14 melanoma
SR leukemia = system: SR leukemia
OVCAR-3 ovarian = system: OVCAR-3 ovarian
HT29 colon = system: HT29 colon
TK-10 renal = system: TK-10 renal
MOLT-4 leukemia = system: MOLT-4 leukemia
SK-MEL-5 melanoma = system: SK-MEL-5 melanoma
NCI/ADR-RES ovarian = system: NCI/ADR-RES ovarian
RXF 393 renal = system: RXF 393 renal
RPMI-8226 leukemia = system: RPMI-8226 leukemia

O=c1ccn(C2OC(CO)C(O)C2[Se]c2ccccc2)c(=O)[nH]1 (stereo unspecified) was tested, and the TGI (PC-3 prostate) was greater than 100 µM, the TGI (SK-MEL-2 melanoma) was greater than 100 µM and the TGI (KM12 colon) was greater than 100 µM. The TGI (HL-60(TB) leukemia) was greater than 100 µM, the TGI (CCRF-CEM leukemia) was greater than 100 µM and the TGI (HCT-15 colon) was greater than 100 µM. It also gave a TGI (SF-539 CNS) greater than 100 µM, a TGI (OVCAR-8 ovarian) greater than 100 µM and a TGI (HOP-92 NSCLC) greater than 100 µM. For the same compound, the TGI (HS 578T breast) was greater than 100 µM, the TGI (NCI-H522 lung) was greater than 100 µM and the TGI (K-562 leukemia) was greater than 100 µM. For the same compound, the TGI (LOX IMVI melanoma) was greater than 100 µM, the TGI (UACC-62 melanoma) was 7.31 µM and the TGI (SK-OV-3 ovarian) was greater than 100 µM. The TGI (IGROV1 ovarian) was greater than 100 µM, the TGI (MALME-3M melanoma) was greater than 100 µM and the TGI (UO-31 renal) was greater than 100 µM. For the same compound, the TGI (SNB-75 CNS) was greater than 100 µM, the TGI (SF-295 CNS) was greater than 100 µM and the TGI (BT-549 breast) was greater than 100 µM. For the same compound, the TGI (DU-145 prostate) was greater than 100 µM, the TGI (SW-620 colon) was greater than 100 µM and the TGI (SN12C renal) was greater than 100 µM. For the same compound, the TGI (SNB-19 CNS) was greater than 100 µM, the TGI (HCC-2998 colon) was greater than 100 µM and the TGI (SF-268 CNS) was greater than 100 µM. For the same compound, the TGI (A498 renal) was greater than 100 µM, the TGI (ACHN renal) was greater than 100 µM and the TGI (786-0 renal) was greater than 100 µM. It also gave a TGI (U251 CNS) greater than 100 µM, a TGI (MCF7 breast) greater than 100 µM and a TGI (OVCAR-5 ovarian) greater than 100 µM. The TGI (OVCAR-4 ovarian) was greater than 100 µM, the TGI (MDA-MB-435) was greater than 100 µM and the TGI (EKVX NSCLC) was greater than 100 µM. It also gave a TGI (CAKI-1 renal) greater than 100 µM, a TGI (MDA-MB-231 breast) greater than 100 µM and a TGI (NCI-H226 lung) greater than 100 µM. It also gave a TGI (NCI-H23 lung) greater than 100 µM, a TGI (HCT-116 colon) greater than 100 µM and a TGI (MDA-N) greater than 100 µM. The TGI (SK-MEL-28 melanoma) was greater than 100 µM, the TGI (HOP-62 NSCLC) was greater than 100 µM and the TGI (NCI-H460 lung) was greater than 100 µM. The TGI (UACC-257 melanoma) was 14.2 µM, the TGI (A549 NSCLC) was greater than 100 µM and the TGI (COLO 205 colon) was greater than 100 µM. It also gave a TGI (M14 melanoma) greater than 100 µM, a TGI (SR leukemia) greater than 100 µM and a TGI (OVCAR-3 ovarian) greater than 100 µM. For the same compound, the TGI (HT29 colon) was greater than 100 µM, the TGI (TK-10 renal) was 0.685 µM and the TGI (MOLT-4 leukemia) was greater than 100 µM. It also gave a TGI (SK-MEL-5 melanoma) greater than 100 µM and a TGI (NCI/ADR-RES ovarian) greater than 100 µM.

In the case of COc1ccc(C(CC(=O)C(C)(C)CN2CCCCC2)SCCS(=O)(=O)O)cc1 (stereo unspecified), the TGI (PC-3 prostate) is reported as greater than 100 µM, the TGI (SK-MEL-2 melanoma) is reported as greater than 100 µM and the TGI (KM12 colon) is reported as greater than 100 µM. For the same compound, the TGI (HL-60(TB) leukemia) was 67 µM, the TGI (CCRF-CEM leukemia) was 55.1 µM and the TGI (HCT-15 colon) was greater than 100 µM. For the same compound, the TGI (SF-539 CNS) was 38.8 µM, the TGI (OVCAR-8 ovarian) was greater than 100 µM and the TGI (HOP-92 NSCLC) was 47.2 µM. The TGI (HS 578T breast) was greater than 100 µM, the TGI (NCI-H522 lung) was 43.4 µM and the TGI (K-562 leukemia) was greater than 100 µM. It also gave a TGI (UACC-62 melanoma) greater than 100 µM, a TGI (SK-OV-3 ovarian) greater than 100 µM and a TGI (IGROV1 ovarian) greater than 100 µM. It also gave a TGI (MALME-3M melanoma) of 84.8 µM, a TGI (UO-31 renal) greater than 100 µM and a TGI (SNB-75 CNS) of 91.9 µM. It also gave a TGI (SF-295 CNS) greater than 100 µM, a TGI (BT-549 breast) greater than 100 µM and a TGI (DU-145 prostate) greater than 100 µM. The TGI (SW-620 colon) was greater than 100 µM, the TGI (SN12C renal) was greater than 100 µM and the TGI (SNB-19 CNS) was greater than 100 µM. It also gave a TGI (HCC-2998 colon) greater than 100 µM, a TGI (A498 renal) of 74.3 µM and a TGI (ACHN renal) greater than 100 µM. For the same compound, the TGI (786-0 renal) was 60.7 µM, the TGI (U251 CNS) was greater than 100 µM and the TGI (MCF7 breast) was greater than 100 µM. For the same compound, the TGI (OVCAR-5 ovarian) was greater than 100 µM, the TGI (OVCAR-4 ovarian) was greater than 100 µM and the TGI (MDA-MB-435) was 52.3 µM. The TGI (EKVX NSCLC) was greater than 100 µM, the TGI (CAKI-1 renal) was greater than 100 µM and the TGI (MDA-MB-231 breast) was 75.1 µM. The TGI (NCI-H226 lung) was greater than 100 µM, the TGI (NCI-H23 lung) was 98.7 µM and the TGI (HCT-116 colon) was greater than 100 µM. The TGI (MDA-N) was 96.2 µM, the TGI (HOP-62 NSCLC) was greater than 100 µM and the TGI (NCI-H460 lung) was greater than 100 µM. For the same compound, the TGI (UACC-257 melanoma) was greater than 100 µM, the TGI (A549 NSCLC) was greater than 100 µM and the TGI (COLO 205 colon) was greater than 100 µM. It also gave a TGI (M14 melanoma) of 57.2 µM, a TGI (SR leukemia) of 49.7 µM and a TGI (OVCAR-3 ovarian) of 38.3 µM. The TGI (RXF 393 renal) was greater than 100 µM, the TGI (HT29 colon) was 83.2 µM and the TGI (TK-10 renal) was greater than 100 µM. For the same compound, the TGI (RPMI-8226 leukemia) was 63.9 µM, the TGI (MOLT-4 leukemia) was 57 µM and the TGI (SK-MEL-5 melanoma) was 62.5 µM. For the same compound, the TGI (NCI/ADR-RES ovarian) was greater than 100 µM.

From PubChem BioAssay (NCI)
